Measured values from US9315490B2, “2,5-substituted pyrimidines” (Grünenthal GmbH, priority 2014, dated 2016).

Biological target: T1, human PDE4B1 (Homo sapiens, UniProt Q07343)
T1 construct: host or cells: Sf9 cells
Assay: TR-FRET assay using the LANCE Ultra cAMP kit to determine the activity of hPDE4B1
Format: biochemical
Conditions: for inhibition at 1 µM / inhibition at 10 µM: read-out: Inhibition in % (inhibition of PDE4B); for inhibition at 10 µM: test concentration 10 μM (marked in cell)
Text: TR-FRET Assay Using the LANCE® Ultra cAMP Kit to Determine the Activity of hPDE4B1
The effects of the compounds on the activity of the human PDE4B1 was quantified by measuring the production of 5′AMP from cAMP using a human recombinant enzyme expressed in Sf9 cells and the LANCE® Ultra cAMP kit, a TR-FRET detection method from PerkinElmer. The human PDE4B1 enzyme was purchased from SignalChem Lifesciences (Catalog# P92-31BG, Lot# H296-2).
The test compound, reference compound or water (control) was mixed with the enzyme (0.96 U) in a reaction buffer containing 50 mM Tris-HCl, 50 mM MgCl2 and 5 mM DTT (pH 8.5). Thereafter, the reaction was initiated by addition of 500 nM cAMP (substrate) and the mixture was incubated for 30 minutes at room temperature. For control basal measurements, the enzyme was omitted from the reaction mixture. After 30 minutes, the reaction was stopped and diluted by a factor of 100 with the reaction buffer supplemented with 500 μM IBMX. The fluorescence donor (europium chelate-labeled cAMP) and the fluorescence acceptor (anti-cAMP antibody labeled with the ULight™ dye) were then added together with 500 μM IBMX to a 10 μl aliquot. After 60 minutes, the fluorescence transfer corresponding to the amount of residual cAMP was measured at λex=337 nm, λem=620 nm and λem=665 nm using a microplate reader (PHERAstar, BMG). The enzyme activity was determined by dividing the signal measured at 665 nm by that measured at 620 nm (ratio) multiplied by 10000. The results were expressed as percent inhibition of the control enzyme activity. IC50 values (IC50=concentration causing a half-maximal inhibition of control specific activity) were derived from dose response measurements with ten different concentrations (n=3; N=1-3).

T1 sequence (Q07343 whole entry): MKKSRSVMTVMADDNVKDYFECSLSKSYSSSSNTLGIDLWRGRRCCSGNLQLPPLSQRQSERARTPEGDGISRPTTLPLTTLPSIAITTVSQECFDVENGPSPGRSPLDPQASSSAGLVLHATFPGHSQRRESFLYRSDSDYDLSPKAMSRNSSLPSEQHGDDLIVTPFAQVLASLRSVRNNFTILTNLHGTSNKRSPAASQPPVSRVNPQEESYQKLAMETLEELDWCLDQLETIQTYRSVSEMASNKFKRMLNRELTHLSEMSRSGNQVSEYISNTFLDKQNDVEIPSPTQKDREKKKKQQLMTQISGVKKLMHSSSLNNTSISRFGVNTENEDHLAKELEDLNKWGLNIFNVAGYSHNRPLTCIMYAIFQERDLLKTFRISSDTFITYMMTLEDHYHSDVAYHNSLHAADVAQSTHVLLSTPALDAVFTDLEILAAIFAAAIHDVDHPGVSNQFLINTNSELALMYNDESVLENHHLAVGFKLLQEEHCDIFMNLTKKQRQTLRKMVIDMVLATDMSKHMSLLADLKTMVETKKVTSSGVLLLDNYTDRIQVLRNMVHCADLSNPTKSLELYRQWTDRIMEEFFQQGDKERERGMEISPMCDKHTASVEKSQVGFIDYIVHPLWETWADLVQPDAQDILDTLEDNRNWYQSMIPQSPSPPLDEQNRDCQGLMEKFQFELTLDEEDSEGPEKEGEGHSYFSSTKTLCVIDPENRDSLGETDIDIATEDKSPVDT

Structure (SMILES)	inhibition at 1 µM (test concentration 1 μM) [%]	inhibition at 10 µM [%]	further results
CN(CC(N)=O)C(=O)c1ccc2c([S+](C)[O-])cn(-c3ncc(-c4cc(N(C)C)ccn4)cn3)c2c1 (stereo not drawn) [Example 284, N-(2-Amino-2-oxoethyl)-1-(5-(4-(dimethylamino)pyridin-2-yl)pyrimidin-2-yl)-N-methyl-3-(methylsulfinyl)-1H-indole-6-carboxamide]	104		
CCc1ccnc(-c2cnc(-n3cc([S+](C)[O-])c4ccc(C(=O)N(C)CC(N)=O)cc43)nc2)c1 (stereo not drawn) [Example 285, N-(2-Amino-2-oxoethyl)-1-(5-(4-ethylpyridin-2-yl)pyrimidin-2-yl)-N-methyl-3-(methylsulfinyl)-1H-indole-6-carboxamide]	91		
CN(CC(N)=O)C(=O)c1ccc2c([S+](C)[O-])cn(-c3ncc(-c4cc(N)ccn4)cn3)c2c1 (stereo not drawn) [Example 286, N-(2-Amino-2-oxoethyl)-1-(5-(4-aminopyridin-2-yl)pyrimidin-2-yl)-N-methyl-3-(methylsulfinyl)-1H-indole-6-carboxamide]		101	
C[S+]([O-])c1cn(-c2ncc(-c3cc(C(C)(C)O)ccn3)cn2)c2cc(C(=O)N3CCOCC3)ccc12 (stereo not drawn) [Example 289, (1-(5-(4-(2-Hydroxypropan-2-yl)pyridin-2-yl)pyrimidin-2-yl)-3-(methylsulfinyl)-1H-indol-6-yl)(morpholino)methanone]	93		
CCNc1ccc(F)c(-c2cnc(-n3cc([S+](C)[O-])c4ccc(C(=O)N5CCOCC5)cc43)nc2)c1 (stereo not drawn) [Example 292, (1-(5-(5-(Ethylamino)-2-fluorophenyl)pyrimidin-2-yl)-3-(methylsulfinyl)-1H-indol-6-yl)(morpholino)methanone]		91	
C[S+]([O-])c1cn(-c2ncc(-c3cc(C(C)(C)O)ccc3F)cn2)c2cc(C(=O)N3CCOCC3)ccc12 (stereo not drawn) [Example 293, (1-(5-(2-Fluoro-5-(2-hydroxypropan-2-yl)phenyl)pyrimidin-2-yl)-3-(methylsulfinyl)-1H-indol-6-yl)(morpholino)methanone]	94		
C[S+]([O-])c1cn(-c2ncc(-c3cc(NCC4CC4)ccn3)cn2)c2cc(C(=O)N3CCOCC3)ccc12 (stereo not drawn) [Example 296, (1-(5-(4-((Cyclopropylmethyl)amino)pyridin-2-yl)pyrimidin-2-yl)-3-(methylsulfinyl)-1H-indol-6-yl)(morpholino)methanone]	97		
C[S+]([O-])c1cn(-c2ncc(-c3cc(Cl)ccn3)cn2)c2cc(C(=O)N3CCOCC3)ccc12 (stereo not drawn) [Example 299, (1-(5-(4-Chloropyridin-2-yl)pyrimidin-2-yl)-3-(methylsulfinyl)-1H-indol-6-yl)(morpholino)methanone]	94		
CC(O)c1ccnc(-c2cnc(-n3cc([S+](C)[O-])c4ccc(C(=O)N5CCOCC5)cc43)nc2)c1 (stereo not drawn) [Example 300, (1-(5-(4-(1-Hydroxyethyl)pyridin-2-yl)pyrimidin-2-yl)-3-(methylsulfinyl)-1H-indol-6-yl)(morpholino)methanone]			Inhibition in % (inhibition of PDE4B) (test concentration 1 μM, 1 µM): 93%
C[S+]([O-])c1cn(-c2ncc(-c3cc(N4CCCC4)ccn3)cn2)c2cc(C(=O)N3CCOCC3)ccc12 (stereo not drawn) [Example 301, (3-(Methylsulfinyl)-1-(5-(4-(pyrrolidin-1-yl)pyridin-2-yl)pyrimidin-2-yl)-1H-indol-6-yl)(morpholino)methanone]		99	
C[S+]([O-])c1cn(-c2ncc(-c3ccccc3F)cn2)c2cc(C(=O)N3CC[C@H](CO)C3)ccc12 (stereo partly drawn) [Example 303, (1-(5-(2-Fluorophenyl)pyrimidin-2-yl)-3-(methylsulfinyl)-1H-indol-6-yl)((S)-3-(hydroxymethyl)pyrrolidin-1-yl)methanone]		99	
C[S+]([O-])c1cn(-c2ncc(-c3ccccc3F)cn2)c2cc(C(=O)N3C[C@@H]4C[C@H]3CO4)ccc12 (stereo partly drawn) [Example 308, (1S,4S)-2-Oxa-5-azabicyclo[2.2.1]heptan-5-yl(1-(5-(2-fluorophenyl)pyrimidin-2-yl)-3-(methylsulfinyl)-1H-indol-6-yl)methanone]		101	
CS(=O)(=O)c1cn(-c2ncc(-c3ccccc3F)cn2)c2cc(C(=O)N3C[C@@H]4C[C@H]3CO4)ccc12 [Example 309, (1S,4S)-2-Oxa-5-azabicyclo[2.2.1]heptan-5-yl(1-(5-(2-fluorophenyl)pyrimidin-2-yl)-3-(methylsulfonyl)-1H-indol-6-yl)methanone]		97	

Further lines, with some results ahead:

inhibition at 1 µM (test concentration 1 μM) [%]	inhibition at 10 µM [%]	Structure (SMILES)	further results
93		CS(=N)(=O)c1cn(-c2ncc(-c3ccccc3F)cn2)c2cc(C(=O)N3CCOCC3)ccc12 (stereo not drawn) [Example 287, (1-(5-(2-Fluorophenyl)pyrimidin-2-yl)-3-(S-methylsulfonimidoyl)-1H-indol-6-yl)(morpholino)methanone]	
92		Cc1ccnc(-c2cnc(-n3cc(S(C)(=N)=O)c4ccc(C(=O)N5CCOCC5)cc43)nc2)c1 (stereo not drawn) [Example 288, (1-(5-(4-Methylpyridin-2-yl)pyrimidin-2-yl)-3-(S-methylsulfonimidoyl)-1H-indol-6-yl)(morpholino)methanone]	
	97	C[S+]([O-])c1cn(-c2ncc(-c3cc(NCC4CC4)ccc3F)cn2)c2cc(C(=O)N3CCOCC3)ccc12 (stereo not drawn) [Example 290, (1-(5-(5-((Cyclopropylmethyl)amino)-2-fluorophenyl)pyrimidin-2-yl)-3-(methylsulfinyl)-1H-indol-6-yl)(morpholino)methanone]	
90		CC(O)c1ccnc(-c2cnc(-n3cc([S+](C)[O-])c4ccc(C(=O)N5CCOCC5)cc43)nc2)c1 (stereo not drawn) [Example 291, (1-(5-(4-(1-Hydroxyethyl)pyridin-2-yl)pyrimidin-2-yl)-3-(methylsulfinyl)-1H-indol-6-yl)(morpholino)methanone]	
	98	C[S+]([O-])c1cn(-c2ncc(-c3cc(C4(O)CC4)ccc3F)cn2)c2cc(C(=O)N3CCOCC3)ccc12 (stereo not drawn) [Example 294, (1-(5-(2-Fluoro-5-(1-hydroxycyclopropyl)phenyl)pyrimidin-2-yl)-3-(methylsulfinyl)-1H-indol-6-yl)(morpholino)methanone]	
	98	C[S+]([O-])c1cn(-c2ncc(-c3cc(C4(O)CC4)ccn3)cn2)c2cc(C(=O)N3CCOCC3)ccc12 (stereo not drawn) [Example 295, (1-(5-(4-(1-Hydroxycyclopropyl)pyridin-2-yl)pyrimidin-2-yl)-3-(methylsulfinyl)-1H-indol-6-yl)(morpholino)methanone]	
93		C[S+]([O-])c1cn(-c2ncc(-c3cc(N4CCCC4)ccn3)cn2)c2cc(C(=O)N3CCOCC3)ccc12 (stereo not drawn) [Example 297, (3-(Methylsulfinyl)-1-(5-(4-(pyrrolidin-1-yl)pyridin-2-yl)pyrimidin-2-yl)-1H-indol-6-yl)(morpholino)methanone]	
119		CCNc1ccnc(-c2cnc(-n3cc([S+](C)[O-])c4ccc(C(=O)N5CCOCC5)cc43)nc2)c1 (stereo not drawn) [Example 298, (1-(5-(4-(Ethylamino)pyridin-2-yl)pyrimidin-2-yl)-3-(methylsulfinyl)-1H-indol-6-yl)(morpholino)methanone]	
	103	C[S+]([O-])c1cn(-c2ncc(-c3ccccc3F)cn2)c2cc(C(=O)N3CC[C@@H](CO)C3)ccc12 (stereo partly drawn) [Example 302, (1-(5-(2-Fluorophenyl)pyrimidin-2-yl)-3-(methylsulfinyl)-1H-indol-6-yl)((R)-3-(hydroxymethyl)pyrrolidin-1-yl)methanone]	
	115	CNC(=O)CN(C)C(=O)c1ccc2c([S+](C)[O-])cn(-c3ncc(-c4cc(C)ccc4F)cn3)c2c1 (stereo not drawn) [Example 304, 1-(5-(2-Fluoro-5-methylphenyl)pyrimidin-2-yl)-N-methyl-N-(2-(methylamino)-2-oxoethyl)-3-(methylsulfinyl)-1H-indole-6-carboxamide]	
	85	CNC(=O)CN(C)C(=O)c1ccc2c(S(C)(=O)=O)cn(-c3ncc(-c4cc(C)ccc4F)cn3)c2c1 [Example 305, 1-(5-(2-Fluoro-5-methylphenyl)pyrimidin-2-yl)-N-methyl-N-(2-(methylamino)-2-oxoethyl)-3-(methylsulfonyl)-1H-indole-6-carboxamide]	
80		C[S+]([O-])c1cn(-c2ncc(-c3ccccc3F)cn2)c2cc(C(=O)N3CC=CCC3)ccc12 (stereo not drawn) [Example 306, (5,6-Dihydropyridin-1(2H)-yl)(1-(5-(2-fluorophenyl)pyrimidin-2-yl)-3-(methylsulfinyl)-1H-indol-6-yl)methanone]	
82		CN(CCCO)C(=O)c1ccc2c([S+](C)[O-])cn(-c3ncc(-c4ccccc4F)cn3)c2c1 (stereo not drawn) [Example 307, 1-(5-(2-Fluorophenyl)pyrimidin-2-yl)-N-(3-hydroxypropyl)-N-methyl-3-(methylsulfinyl)-1H-indole-6-carboxamide]	
	91	COc1ccc(F)c(-c2cnc(-n3cc(S(C)(=O)=O)c4ccc(C(=O)N(C)CC(N)=O)cc43)nc2)c1 [Example 310, N-(2-Amino-2-oxoethyl)-1-(5-(2-fluoro-5-methoxyphenyl)pyrimidin-2-yl)-N-methyl-3-(methylsulfonyl)-1H-indole-6-carboxamide]	
